pIC50: −log10 of the molar value. Structures can show the parent of a compound that is named as a salt.
Experiments:
HL60 cells = details: read-out: IC50, growth of HL60 cells; cited from earlier work
pause release = assay: Inhibition of pause release; format: cell-based
Text: It has undergone clinical trials in a number of different cancer types including various solid tumors and leukemias. […] Without wishing to be bound by theory, this may help counteract the effects of Myc overexpression, and this may be the basis for the therapeutic effect of flavopiridol on some tumors.

[1] = test system: various tumor cells lines; details: cited from earlier work
xenograft models = details: in vivo; cited from earlier work
c-Myc [2] = target: T1, c-Myc (Homo sapiens, UniProt P01106); details: cited from earlier work
MM.1S cells = assay: JQ1 sensitivity of MM.1S cells by measurement of ATP levels (CellTiterGlo); format: cell-based, human
Text: (§1) Schematic depicting the experimental procedure.

c-MYC [3] = assay: Western blot of c-MYC protein levels after JQ1 or DMSO treatment; format: cell-based, human; details: MM.1S cells, 6 hours of JQ1 treatment
Text: as §1

P-TEFb = assay: ChIP-Seq of P-TEFb occupancy in MM.1S cells after JQ1 treatment; format: cell-based, human
Text: FIGS. 9(A)-9(C) illustrate that loss of P-TEFb accompanies BRD4 inhibition. (FIG. 9A) P-TEFb generally occupies enhancers bound by Mediator and BRD4 in MM1.S cells. […] (FIG. 9C) P-TEFb is disproportionally lost at super-enhancers.
BRD4 recruits the active form of the positive transcription elongation factor P-TEFb, which stimulates pause release and transcription elongation (Bisgrove et al., 2007; Hargreaves et al., 2009; Jang et al., 2005; Jiang et al., 1998; Wu and Chiang, 2007; Wu et al., 2003; Yang et al., 2005). […] Furthermore, P-TEFb was disproportionately lost at super-enhancers when compared to normal enhancers (FIG. 9C). We conclude that BET bromodomain inhibition of BRD4 leads to loss of P-TEFb at enhancers and transcription start sites, and that the inhibition has more profound effects at super-enhancers than at average enhancers.

RNA Polymerase II = assay: ChIP-seq of RNA Polymerase II after JQ1 treatment (transcription elongation); format: cell-based, human; details: MM.1S cells
Text: (FIG. 10B) Genes associated with super-enhancers show a dramatic defect in elongation.

c-Myc [4] = target: T1, c-Myc; details: cited from earlier work; remark: listed apart in the source
c-Myc/Max = c-Myc/Max (Homo sapiens, UniProt P01106); details: cited from earlier work
c-Myc [5] = target: T1, c-Myc; details: at concentrations of 10-40 μM; cited from earlier work
[6] = test system: chicken embryo fibroblasts; details: cited from earlier work

Chain of c-Myc/Max (P01106 whole entry): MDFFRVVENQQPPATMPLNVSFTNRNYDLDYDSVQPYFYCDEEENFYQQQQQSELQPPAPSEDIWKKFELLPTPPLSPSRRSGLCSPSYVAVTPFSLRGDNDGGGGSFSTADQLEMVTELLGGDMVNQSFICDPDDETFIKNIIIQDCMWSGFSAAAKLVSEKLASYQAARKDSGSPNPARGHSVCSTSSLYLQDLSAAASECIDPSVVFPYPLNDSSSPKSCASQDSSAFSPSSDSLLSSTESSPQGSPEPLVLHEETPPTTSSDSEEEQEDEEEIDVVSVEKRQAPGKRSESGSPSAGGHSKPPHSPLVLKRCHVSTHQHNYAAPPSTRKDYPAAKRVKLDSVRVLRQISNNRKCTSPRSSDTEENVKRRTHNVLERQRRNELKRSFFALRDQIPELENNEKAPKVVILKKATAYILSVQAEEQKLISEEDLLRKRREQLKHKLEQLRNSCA
T1 sequence (P01106 whole entry): as above

## CCc1ccc(/C=C2/SC(=S)NC2=O)cc1 [10058-F4]
HL60 cells
  pIC50: 4.31

## CN1CC[C@H](c2c(O)cc(O)c3c(=O)cc(-c4ccccc4Cl)oc23)[C@H](O)C1 [Flavopiridol, (−)-2-(2-Chlorophenyl)-5,7-dihydroxy-8-[(3S,4R)-3-hydroxy-1-methyl-4-piperidinyl]-4H-1-benzopyran-4-one hydrochloride]
Pause release
  pause release: inhibit pause release
[1]
  antitumor activity against various tumor cells lines: antitumor activity
Xenograft models
  tumor growth in xenograft models: inhibit tumor growth

## CNC(=O)c1cc2c(cc1C(=O)NC[C@H](NS(=O)(=O)c1c(Cl)sc(Cl)c1Br)C(=O)OC(C)(C)C)CN(C(=O)CCC1CCN(C(=O)OC(C)(C)C)CC1)C2 [IIA6B17]
c-Myc [2]
  inhibition of c-Myc-dependent transcription in a reporter gene assay: inhibit

## Cc1sc2c(c1C)C(c1ccc(Cl)cc1)=N[C@@H](CC(=O)OC(C)(C)C)c1nnc(C)n1-2 [JQ1]
MM.1S cells; 6 hour treatments, various concentrations of JQ1
  MM1.S cell viability, as measured by ATP levels: little effect
MM.1S cells; later time points
  antiproliferative effect on MM1.S cells: dramatic antiproliferative effect
c-MYC [3]
  MYC protein levels: significantly depleted
P-TEFb
  levels of P-TEFb at sites where there was a reduction in BRD4: reduce the levels of P-TEFb
RNA Polymerase II
  transcriptional elongation (PolII in the gene body and 3' transcription termination regions): global defect in transcriptional elongation

## CN(C)CCCNc1cc(O)c2c(c1O)C(=O)c1ccccc1C2=O [MYRA-A]
c-Myc [4]
  Myc-regulated gene expression: inhibit
  apoptosis: induce apoptosis in a Myc-dependent manner

## COc1ccc(CNC(=O)c2cc3nc(-c4cccs4)cc(C(F)(F)F)n3n2)cc1 [Mycro1]
c-Myc/Max
  inhibition of c-Myc/Max dimerization: inhibit
c-Myc [2]
  specificity for c-Myc-dependent transcription over transcription mediated by AP-1 family proteins: weak-to-moderate specificity

## O=C(NCc1cccs1)c1cc2nc(-c3cccs3)cc(C(F)(F)F)n2n1 [Mycro2]
c-Myc/Max
  inhibition of c-Myc/Max dimerization: inhibit
c-Myc [2]
  specificity for c-Myc-dependent transcription over transcription mediated by AP-1 family proteins: weak-to-moderate specificity

## CCOC(=O)c1cnn(-c2ccccc2)c1NC(=O)c1cc2nc(-c3cccs3)cc(C(F)(F)F)n2n1 [Mycro3]
c-Myc [5]
  potency and selectivity against c-Myc in cellular assays: good potency and selectivity
c-Myc/Max
  inhibition of c-Myc/Max dimerization: inhibited
c-Myc/Max; in vitro
  selectivity in vitro of inhibition of c-Myc/Max dimerization and DNA binding: very good selectivity

## COc1ccc(CN(C(=O)c2ccccn2)C(C(=O)NC2CCCCC2)c2ccc3cc(OCC(=O)OC(C)(C)C)ccc3c2)cc1 (stereo not shown) [NY2267]
c-Myc [2]
  discrimination between transcription mediated by c-Jun and c-Myc: did not discriminate
[6]; at 20 μM
  inhibition of c-Myc-dependent oncogenic transformation of chicken embryo fibroblasts: strongly inhibited
[6]
  selectivity over transformation mediated by v-Src or v-Jun: showed selectivity
